Literature values as cited in patent US9163134B2, “Highly functional additive for polymerization and method for preparing vinyl chloride seeds using the same” (LG CHEM, LTD., priority 2011, dated 2015).
Converted amounts (≈) assume the structure as drawn.

Row | Structure (SMILES) | Solubility in water (mg/L) | Solubility in water [µg/mL]
1 | CCO [C2H5—OH] | ∞ | –
2 | CCCCCCCCCCO [C10H21—OH] | – | 37 (≈ 0.234 mM)
3 | CCCCCCCCO [C8H17—OH] | – | 540 (≈ 4.15 mM)
4 | CCCCCCO [C6H13—OH] | – | 6260 (≈ 61.3 mM)
